# Experimental data taken from patent US11261196B2, “Salt serving as AKT inhibitor and crystal thereof” (HARBIN ZHENBAO PHARMACEUTICAL CO., LTD., priority 2017, dated 2022).
# Entries after “also recorded” stand apart in the source; their conditions may differ.
# Experiments:
# AKT1 = target: T1, AKT1 (Homo sapiens, UniProt P31749); assay: AKT enzyme activity test (LANCE TR-FRET), AKT1; format: biochemical
# T1 construct: purchased life technology
# Description: (§1) AKT, also known as protein kinase B (PKB), is a serine/threonine specific protein kinase, mainly including AKT1, AKT2 and AKT3. The AKT signaling pathway plays an important role in various cellular processes such as glucose metabolism, apoptosis, cell proliferation transcription and cell migration. This study intends to analyze the inhibitory effect of the crystal form of the compound of formula (I) on the kinase activity of AKT family members.
# (§2) In this experiment, the homogeneous time-resolved fluorescence […] energy transfer (LANCE TR-FRET®) method was used. The enzymes, biotinylated polypeptide substrates and the compound to be tested were mixed in the detection plate, and ATP was added to initiate the reaction and the mixture was incubated. After the reaction, EDTA was added to terminate the reaction, and Eu-labeled antibody was added at the same time to carry out the reaction and the reaction was detected. The detection plate was analyzed using Envision from PE Company, and the analysis mode was TR-FRET, the data were expressed by fluorescence signals at 665 nm and 615 nm, respectively.
# (§3) Compound preparation: the test compound and the reference compound were diluted with 100% DMSO, the initial concentrations of the compounds were 10 μM, and the compounds were 3-fold gradient diluted into 10 concentrations. […]
# AKT3 = target: T2, AKT3 (Homo sapiens, UniProt Q9Y243); assay: AKT enzyme activity test (LANCE TR-FRET), AKT3; format: biochemical
# T2 construct: purchased life technology
# Description: as §1, §2, §3
# [1] = Stability test of the crystal form (accelerated conditions, HPLC related substances); format: physicochemical
# Protocol: […] The sample was analyzed after 10 days, 1 month and 2 months.
# 1.2 Preparation of Diluent and Mobile Phase
# Diluent: acetonitrile:water (1:1) was used as diluent
# For example: 100 mL of pure water and 100 mL of pure acetonitrile were mixed in a glass bottle, followed by degassing with ultrasound for 10 minutes, then cooled down to room temperature.
# Mobile phase A: 0.1% phosphoric acid aqueous solution
# For example: 2.0 mL phosphoric acid was added into 2000 mL water, followed by ultrasound treatment for 10 minutes, the solution was mixed well and cooled down to room temperature as mobile phase A.
# Mobile phase B: acetonitrile
# Acetonitrile was used as mobile phase B.
# 1.3 Preparation of the Reference Solution (0.25 mg/mL Calculated by the Free Base)
# The sample of the 0th day was used as reference sample, 16 mL of diluent was added thereto, followed by ultrasound treatment for 5 minutes, and the solution was mixed well. Then the solution was further subjected to 1-fold dilution and marked as STD-1 and STD-2, respectively.
# 1.4 Preparation of Sample Solution for Testing Sensitivity
# Reference solution STD-1 (the sample of the 0th day) was subjected to 2000-fold dilution, noted as LOQ.
# 1.5 Preparation of the Sample Solution (0.25 mg/mL Calculated by the Freebase)
# The sample was taken out and restored to room temperature and 16 mL diluent was added for dissolution. The solution was further subjected to 1-fold dilution to be used as sample solution to detect the content of related substances.
# T1 sequence (P31749 whole entry): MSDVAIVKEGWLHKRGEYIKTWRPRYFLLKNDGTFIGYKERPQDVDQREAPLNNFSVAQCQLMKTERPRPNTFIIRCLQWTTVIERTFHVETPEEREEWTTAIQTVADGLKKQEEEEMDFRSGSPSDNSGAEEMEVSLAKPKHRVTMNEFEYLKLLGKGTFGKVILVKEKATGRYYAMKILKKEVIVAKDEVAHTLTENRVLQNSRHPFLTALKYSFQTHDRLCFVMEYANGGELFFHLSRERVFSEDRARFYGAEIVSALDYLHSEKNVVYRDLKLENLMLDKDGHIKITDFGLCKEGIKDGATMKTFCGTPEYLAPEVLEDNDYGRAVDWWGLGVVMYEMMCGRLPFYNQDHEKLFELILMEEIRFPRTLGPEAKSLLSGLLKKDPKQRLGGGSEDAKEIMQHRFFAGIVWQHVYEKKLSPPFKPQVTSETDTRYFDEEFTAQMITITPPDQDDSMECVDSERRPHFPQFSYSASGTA
# T2 sequence (Q9Y243 whole entry): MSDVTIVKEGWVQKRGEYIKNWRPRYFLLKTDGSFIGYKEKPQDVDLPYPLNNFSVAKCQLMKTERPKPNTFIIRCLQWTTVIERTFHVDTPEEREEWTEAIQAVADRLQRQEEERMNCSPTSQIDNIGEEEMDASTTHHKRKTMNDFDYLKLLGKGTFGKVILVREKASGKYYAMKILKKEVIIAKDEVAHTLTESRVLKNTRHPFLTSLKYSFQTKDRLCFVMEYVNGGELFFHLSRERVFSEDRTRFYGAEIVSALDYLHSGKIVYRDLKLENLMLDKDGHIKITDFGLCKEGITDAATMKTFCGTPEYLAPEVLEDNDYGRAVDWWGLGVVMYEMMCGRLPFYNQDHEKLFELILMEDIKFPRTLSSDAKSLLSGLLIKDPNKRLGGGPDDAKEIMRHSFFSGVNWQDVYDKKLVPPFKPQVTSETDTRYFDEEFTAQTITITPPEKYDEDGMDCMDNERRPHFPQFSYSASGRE
structure (smiles),measurement,setting,value
Cc1cnn2c1-c1cc(C(=O)N[C@H](CN)Cc3cccc(F)c3)sc1CCC2.O=C(O)/C=C\C(=O)O,inhibition effect against the activity of AKT1 kinase,AKT1,strong inhibition effect
same,IC50,"AKT1; Akt1 1.25 nM, ATP 36 μM, read-out: IC50 of inhibition on kinase activity, AKT1",1.3 nM
same,inhibition effect against the activity of AKT3 kinase,AKT3,strong inhibition effect
same,IC50,"AKT3; Akt3 2 nM, ATP 160 μM, read-out: IC50 of inhibition on kinase activity, AKT3",90.4 nM
same,"Impurity content, RRT 0.95","[1]; 40° C./75%RH, 1M",0.05%
same,"Impurity content, RRT 0.98","[1]; 40° C./75%RH, 1M",0.10%
same,"Impurity content, RRT 0.99","[1]; 40° C./75%RH, 1M",1.36%
same,"Impurity content, RRT 1.02","[1]; 40° C./75%RH, 1M",0.22%
same,"Impurity content, RRT 1.04","[1]; 40° C./75%RH, 1M",0.05%
same,"Impurity content, RRT 1.06","[1]; 40° C./75%RH, 1M",0.05%
same,"Impurity content, RRT 1.21","[1]; 40° C./75%RH, 1M",1.50%
same,"Impurity content, RRT 1.26","[1]; 40° C./75%RH, 1M",0.07%
same,TRS (total impurity content),"[1]; 40° C./75%RH, 1M",3.38%
same,"Impurity content, RRT 0.95","[1]; 40° C./75%RH, 2M",0.04%
same,"Impurity content, RRT 0.98","[1]; 40° C./75%RH, 2M",0.10%
same,"Impurity content, RRT 0.99","[1]; 40° C./75%RH, 2M",1.31%
same,"Impurity content, RRT 1.02","[1]; 40° C./75%RH, 2M",0.20%
same,"Impurity content, RRT 1.04","[1]; 40° C./75%RH, 2M",0.04%
same,"Impurity content, RRT 1.06","[1]; 40° C./75%RH, 2M",0.09%
same,"Impurity content, RRT 1.21","[1]; 40° C./75%RH, 2M",1.44%
same,"Impurity content, RRT 1.26","[1]; 40° C./75%RH, 2M",0.06%
same,"Impurity content, RRT 1.43","[1]; 40° C./75%RH, 2M",0.09%
same,TRS (total impurity content),"[1]; 40° C./75%RH, 2M",3.37%
same,"Impurity content, RRT 0.98","[1]; 40° C./75%RH, 10D",0.10%
same,"Impurity content, RRT 0.99","[1]; 40° C./75%RH, 10D",1.40%
same,"Impurity content, RRT 1.02","[1]; 40° C./75%RH, 10D",0.24%
same,"Impurity content, RRT 1.04","[1]; 40° C./75%RH, 10D",0.04%
same,"Impurity content, RRT 1.21","[1]; 40° C./75%RH, 10D",1.50%
same,"Impurity content, RRT 1.26","[1]; 40° C./75%RH, 10D",0.06%
same,TRS (total impurity content),"[1]; 40° C./75%RH, 10D",3.35%
same,"Impurity content, RRT 0.95","[1]; 60° C./75%RH, 1M",0.05%
same,"Impurity content, RRT 0.98","[1]; 60° C./75%RH, 1M",0.10%
same,"Impurity content, RRT 0.99","[1]; 60° C./75%RH, 1M",1.27%
same,"Impurity content, RRT 1.02","[1]; 60° C./75%RH, 1M",0.19%
same,"Impurity content, RRT 1.04","[1]; 60° C./75%RH, 1M",0.08%
same,"Impurity content, RRT 1.06","[1]; 60° C./75%RH, 1M",0.34%
same,"Impurity content, RRT 1.21","[1]; 60° C./75%RH, 1M",1.44%
same,"Impurity content, RRT 1.26","[1]; 60° C./75%RH, 1M",0.10%
same,TRS (total impurity content),"[1]; 60° C./75%RH, 1M",3.57%
same,"Impurity content, RRT 0.95","[1]; 60° C./75%RH, 2M",0.04%
same,"Impurity content, RRT 0.98","[1]; 60° C./75%RH, 2M",0.10%
same,"Impurity content, RRT 0.99","[1]; 60° C./75%RH, 2M",1.22%
same,"Impurity content, RRT 1.02","[1]; 60° C./75%RH, 2M",0.24%
same,"Impurity content, RRT 1.04","[1]; 60° C./75%RH, 2M",0.08%
same,"Impurity content, RRT 1.06","[1]; 60° C./75%RH, 2M",0.45%
same,"Impurity content, RRT 1.21","[1]; 60° C./75%RH, 2M",1.43%
same,"Impurity content, RRT 1.26","[1]; 60° C./75%RH, 2M",0.10%
same,"Impurity content, RRT 1.33","[1]; 60° C./75%RH, 2M",0.06%
same,"Impurity content, RRT 1.36","[1]; 60° C./75%RH, 2M",0.08%
same,"Impurity content, RRT 1.43","[1]; 60° C./75%RH, 2M",0.05%
same,TRS (total impurity content),"[1]; 60° C./75%RH, 2M",3.85%
same,"Impurity content, RRT 0.98","[1]; 60° C./75%RH, 10D",0.10%
same,"Impurity content, RRT 0.99","[1]; 60° C./75%RH, 10D",1.36%
same,"Impurity content, RRT 1.02","[1]; 60° C./75%RH, 10D",0.24%
same,"Impurity content, RRT 1.04","[1]; 60° C./75%RH, 10D",0.07%
same,"Impurity content, RRT 1.06","[1]; 60° C./75%RH, 10D",0.15%
same,"Impurity content, RRT 1.21","[1]; 60° C./75%RH, 10D",1.46%
same,"Impurity content, RRT 1.26","[1]; 60° C./75%RH, 10D",0.09%
same,TRS (total impurity content),"[1]; 60° C./75%RH, 10D",3.47%
same,Stability,[1]; high temperature and high humidity,"stable under the conditions of high temperature and high humidity; also recorded: relatively stable, and less affected by heat and humidity"
same,"Impurity content, RRT 0.95","[1]; −20° C., 1M",0.04%
same,"Impurity content, RRT 0.98","[1]; −20° C., 1M",0.11%
same,"Impurity content, RRT 0.99","[1]; −20° C., 1M",1.38%
same,"Impurity content, RRT 1.02","[1]; −20° C., 1M",0.22%
same,"Impurity content, RRT 1.04","[1]; −20° C., 1M",0.05%
same,"Impurity content, RRT 1.21","[1]; −20° C., 1M",1.52%
same,"Impurity content, RRT 1.26","[1]; −20° C., 1M",0.07%
same,TRS (total impurity content),"[1]; −20° C., 1M",3.38%
same,"Impurity content, RRT 0.95","[1]; −20° C., 2M",0.04%
same,"Impurity content, RRT 0.98","[1]; −20° C., 2M",0.10%
same,"Impurity content, RRT 0.99","[1]; −20° C., 2M",1.35%
same,"Impurity content, RRT 1.02","[1]; −20° C., 2M",0.19%
same,"Impurity content, RRT 1.04","[1]; −20° C., 2M",0.04%
same,"Impurity content, RRT 1.21","[1]; −20° C., 2M",1.51%
same,"Impurity content, RRT 1.26","[1]; −20° C., 2M",0.10%
same,"Impurity content, RRT 1.43","[1]; −20° C., 2M",0.05%
same,TRS (total impurity content),"[1]; −20° C., 2M",3.38%
same,"Impurity content, RRT 0.95","[1]; −20° C., 10D",0.04%
same,"Impurity content, RRT 0.98","[1]; −20° C., 10D",0.10%
same,"Impurity content, RRT 0.99","[1]; −20° C., 10D",1.37%
same,"Impurity content, RRT 1.02","[1]; −20° C., 10D",0.29%
same,"Impurity content, RRT 1.04","[1]; −20° C., 10D",0.07%
same,"Impurity content, RRT 1.21","[1]; −20° C., 10D",1.47%
same,"Impurity content, RRT 1.26","[1]; −20° C., 10D",0.05%
same,TRS (total impurity content),"[1]; −20° C., 10D",3.39%
